Experimental data from ChEMBL document CHEMBL1201862, “PubChem BioAssay data set” (2004).
Active and inactive are the calls of the source. Cut-off read from the data, not from the text of the source, for most assays here: actives have a measured EC50 and inactives only a lower limit.

How the values were obtained:
[1] = molecular target: T1, Apoptotic protease-activating factor 1 (Homo sapiens, UniProt O14727); type: functional
T1 sequence (O14727 whole entry): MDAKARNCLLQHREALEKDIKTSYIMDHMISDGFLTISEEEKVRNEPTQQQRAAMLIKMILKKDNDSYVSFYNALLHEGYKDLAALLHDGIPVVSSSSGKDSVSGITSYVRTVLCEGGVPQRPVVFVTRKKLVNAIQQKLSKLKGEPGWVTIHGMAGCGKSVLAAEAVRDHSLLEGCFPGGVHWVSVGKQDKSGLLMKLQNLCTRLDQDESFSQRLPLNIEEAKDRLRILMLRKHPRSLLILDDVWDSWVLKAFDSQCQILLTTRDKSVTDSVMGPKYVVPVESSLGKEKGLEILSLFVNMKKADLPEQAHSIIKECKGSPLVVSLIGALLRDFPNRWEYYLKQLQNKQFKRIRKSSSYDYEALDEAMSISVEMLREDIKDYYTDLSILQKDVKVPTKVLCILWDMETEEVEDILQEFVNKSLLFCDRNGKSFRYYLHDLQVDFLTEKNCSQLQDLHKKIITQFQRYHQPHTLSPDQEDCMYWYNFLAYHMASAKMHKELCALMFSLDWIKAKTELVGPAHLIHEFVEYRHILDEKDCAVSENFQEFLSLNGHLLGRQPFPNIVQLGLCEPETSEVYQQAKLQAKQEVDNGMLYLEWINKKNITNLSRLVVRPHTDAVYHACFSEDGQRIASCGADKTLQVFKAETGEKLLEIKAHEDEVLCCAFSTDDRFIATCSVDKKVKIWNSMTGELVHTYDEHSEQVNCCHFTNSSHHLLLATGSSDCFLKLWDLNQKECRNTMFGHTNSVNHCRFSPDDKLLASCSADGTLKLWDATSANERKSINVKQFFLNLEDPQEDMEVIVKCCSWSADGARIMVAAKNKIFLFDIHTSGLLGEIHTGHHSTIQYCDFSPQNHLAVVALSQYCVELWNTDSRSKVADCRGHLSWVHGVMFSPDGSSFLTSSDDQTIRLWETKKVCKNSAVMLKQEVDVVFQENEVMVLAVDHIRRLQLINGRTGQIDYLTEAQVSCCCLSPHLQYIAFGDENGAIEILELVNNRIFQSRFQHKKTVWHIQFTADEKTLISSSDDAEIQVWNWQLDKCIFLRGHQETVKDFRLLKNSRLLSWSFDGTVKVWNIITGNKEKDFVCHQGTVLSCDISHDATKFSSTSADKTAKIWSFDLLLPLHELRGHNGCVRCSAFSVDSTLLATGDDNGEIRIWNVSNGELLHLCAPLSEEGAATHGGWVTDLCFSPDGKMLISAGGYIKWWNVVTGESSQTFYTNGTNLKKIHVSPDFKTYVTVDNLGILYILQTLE

[2] = Counterscreen for AddAB inhibitors: absorbance-based bacterial cell-based high throughput dose response assay for inhibitors of bacterial viability. [Related pubchem assays (depositor defined):AID435030, AID449728, AID449731, AID488942, AID488955, AID488956]; type: functional
[3] = molecular target: ATP-dependent molecular chaperone HSP82 (Candida albicans (strain WO-1) (Yeast), UniProt C4YTQ8); assay: steroid-induced GRE reporter decrease in yeast – S. cerevisiae, luminescence, Hsp90 inhibitor project, dose response (AID 2400); type: functional, cell-based;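 note: beta-galactosidase luminescence from glucocorticoid response element reporter as proxy for Hsp90 function; inhibitor potency where signal loss means Hsp90 inhibition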
[4] = molecular target: T2, Serine/threonine-protein phosphatase (Candida dubliniensis (strain CD36 / CBS 7987 / NCPF 3949 / NRRLY-17841) (Yeast), UniProt B9W6M3); assay: blockers of CaCl2-induced CDRE-lacZ signaling – S. cerevisiae, luminescence, secondary, dose response (AID 2388); type: functional, cell-based;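 note: yeast reporter cells carrying a calcineurin-responsive lacZ construct stimulated with calcium chloride; luminescent beta-galactosidase reporter signal in whole cells rather than isolated phosphatase activity; potency for inhibition where a drop in reporter signal means calcineurin blockade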
T2 sequence (B9W6M3 whole entry): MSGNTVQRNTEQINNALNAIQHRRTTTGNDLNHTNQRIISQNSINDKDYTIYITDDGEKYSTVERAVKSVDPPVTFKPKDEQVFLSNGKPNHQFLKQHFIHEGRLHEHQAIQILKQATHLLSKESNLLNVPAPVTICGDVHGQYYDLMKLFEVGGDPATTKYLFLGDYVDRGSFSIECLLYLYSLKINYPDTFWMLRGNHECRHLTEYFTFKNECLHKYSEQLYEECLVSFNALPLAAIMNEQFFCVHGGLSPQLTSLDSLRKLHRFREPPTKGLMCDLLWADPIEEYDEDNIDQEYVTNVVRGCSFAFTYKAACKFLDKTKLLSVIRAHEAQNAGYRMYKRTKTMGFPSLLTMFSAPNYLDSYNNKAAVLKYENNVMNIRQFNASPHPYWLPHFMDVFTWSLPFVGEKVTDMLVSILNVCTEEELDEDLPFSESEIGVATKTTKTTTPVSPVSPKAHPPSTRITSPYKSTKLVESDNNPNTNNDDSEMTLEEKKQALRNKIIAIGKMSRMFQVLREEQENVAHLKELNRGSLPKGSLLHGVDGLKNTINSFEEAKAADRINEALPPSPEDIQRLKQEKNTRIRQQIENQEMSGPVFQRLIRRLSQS

Exodeoxyribonuclease V = molecular target: T3, Exodeoxyribonuclease V (Escherichia coli (strain K12), UniProt P04993+P07648+P08394); assay: RecBCD inhibition via phage-restricted bacterial growth – absorbance, V66 E. coli, mutant T4 phage, counter-screen for AddAB inhibitor project, dose response (AID 492957); type: functional, cell-based, Escherichia coli str. K-12 substr. MG1655
T3 sequence (P04993 whole entry): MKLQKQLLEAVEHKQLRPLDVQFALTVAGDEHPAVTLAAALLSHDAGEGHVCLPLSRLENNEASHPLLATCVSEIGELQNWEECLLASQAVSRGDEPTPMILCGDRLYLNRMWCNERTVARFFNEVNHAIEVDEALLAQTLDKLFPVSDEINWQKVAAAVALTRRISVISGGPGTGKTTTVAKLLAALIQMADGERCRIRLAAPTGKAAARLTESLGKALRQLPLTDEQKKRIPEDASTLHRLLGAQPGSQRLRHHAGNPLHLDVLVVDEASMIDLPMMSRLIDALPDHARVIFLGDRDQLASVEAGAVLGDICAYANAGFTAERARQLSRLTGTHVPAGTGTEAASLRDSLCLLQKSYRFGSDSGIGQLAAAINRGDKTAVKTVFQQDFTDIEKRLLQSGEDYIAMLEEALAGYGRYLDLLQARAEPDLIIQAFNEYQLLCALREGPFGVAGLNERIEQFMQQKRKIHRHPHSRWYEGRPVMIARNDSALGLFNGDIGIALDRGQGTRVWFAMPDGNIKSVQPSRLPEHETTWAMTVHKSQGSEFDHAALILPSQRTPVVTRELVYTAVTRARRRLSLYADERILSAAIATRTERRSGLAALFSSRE
T3 sequence (P07648 whole entry): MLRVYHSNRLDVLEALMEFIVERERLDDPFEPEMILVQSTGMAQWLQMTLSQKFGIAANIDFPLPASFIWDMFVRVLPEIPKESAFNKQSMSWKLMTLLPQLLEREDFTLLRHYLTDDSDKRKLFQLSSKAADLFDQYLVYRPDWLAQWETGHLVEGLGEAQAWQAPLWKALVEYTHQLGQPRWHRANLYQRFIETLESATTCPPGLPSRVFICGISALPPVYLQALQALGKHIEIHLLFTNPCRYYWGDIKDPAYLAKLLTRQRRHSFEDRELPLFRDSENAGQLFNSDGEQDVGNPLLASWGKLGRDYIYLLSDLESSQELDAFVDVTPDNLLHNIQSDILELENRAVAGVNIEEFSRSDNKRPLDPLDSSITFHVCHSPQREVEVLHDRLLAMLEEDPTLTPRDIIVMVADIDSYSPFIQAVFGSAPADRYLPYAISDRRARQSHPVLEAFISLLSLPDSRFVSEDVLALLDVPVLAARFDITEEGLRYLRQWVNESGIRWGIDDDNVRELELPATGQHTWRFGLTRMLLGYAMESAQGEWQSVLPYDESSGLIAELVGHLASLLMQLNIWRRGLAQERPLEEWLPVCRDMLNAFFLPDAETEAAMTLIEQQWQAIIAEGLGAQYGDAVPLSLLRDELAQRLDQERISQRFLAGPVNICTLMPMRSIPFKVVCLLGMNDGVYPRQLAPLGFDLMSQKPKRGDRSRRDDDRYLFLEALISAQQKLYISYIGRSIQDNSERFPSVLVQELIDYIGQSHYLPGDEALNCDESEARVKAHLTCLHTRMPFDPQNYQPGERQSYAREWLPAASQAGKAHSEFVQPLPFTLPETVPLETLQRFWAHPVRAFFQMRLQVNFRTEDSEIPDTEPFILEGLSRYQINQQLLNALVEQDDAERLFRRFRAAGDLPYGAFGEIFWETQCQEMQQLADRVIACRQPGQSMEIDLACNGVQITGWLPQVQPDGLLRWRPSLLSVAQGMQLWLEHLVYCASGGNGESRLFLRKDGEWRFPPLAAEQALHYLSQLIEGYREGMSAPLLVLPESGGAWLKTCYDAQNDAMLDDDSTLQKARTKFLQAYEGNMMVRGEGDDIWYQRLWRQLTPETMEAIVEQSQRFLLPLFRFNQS
T3 sequence (P08394 whole entry): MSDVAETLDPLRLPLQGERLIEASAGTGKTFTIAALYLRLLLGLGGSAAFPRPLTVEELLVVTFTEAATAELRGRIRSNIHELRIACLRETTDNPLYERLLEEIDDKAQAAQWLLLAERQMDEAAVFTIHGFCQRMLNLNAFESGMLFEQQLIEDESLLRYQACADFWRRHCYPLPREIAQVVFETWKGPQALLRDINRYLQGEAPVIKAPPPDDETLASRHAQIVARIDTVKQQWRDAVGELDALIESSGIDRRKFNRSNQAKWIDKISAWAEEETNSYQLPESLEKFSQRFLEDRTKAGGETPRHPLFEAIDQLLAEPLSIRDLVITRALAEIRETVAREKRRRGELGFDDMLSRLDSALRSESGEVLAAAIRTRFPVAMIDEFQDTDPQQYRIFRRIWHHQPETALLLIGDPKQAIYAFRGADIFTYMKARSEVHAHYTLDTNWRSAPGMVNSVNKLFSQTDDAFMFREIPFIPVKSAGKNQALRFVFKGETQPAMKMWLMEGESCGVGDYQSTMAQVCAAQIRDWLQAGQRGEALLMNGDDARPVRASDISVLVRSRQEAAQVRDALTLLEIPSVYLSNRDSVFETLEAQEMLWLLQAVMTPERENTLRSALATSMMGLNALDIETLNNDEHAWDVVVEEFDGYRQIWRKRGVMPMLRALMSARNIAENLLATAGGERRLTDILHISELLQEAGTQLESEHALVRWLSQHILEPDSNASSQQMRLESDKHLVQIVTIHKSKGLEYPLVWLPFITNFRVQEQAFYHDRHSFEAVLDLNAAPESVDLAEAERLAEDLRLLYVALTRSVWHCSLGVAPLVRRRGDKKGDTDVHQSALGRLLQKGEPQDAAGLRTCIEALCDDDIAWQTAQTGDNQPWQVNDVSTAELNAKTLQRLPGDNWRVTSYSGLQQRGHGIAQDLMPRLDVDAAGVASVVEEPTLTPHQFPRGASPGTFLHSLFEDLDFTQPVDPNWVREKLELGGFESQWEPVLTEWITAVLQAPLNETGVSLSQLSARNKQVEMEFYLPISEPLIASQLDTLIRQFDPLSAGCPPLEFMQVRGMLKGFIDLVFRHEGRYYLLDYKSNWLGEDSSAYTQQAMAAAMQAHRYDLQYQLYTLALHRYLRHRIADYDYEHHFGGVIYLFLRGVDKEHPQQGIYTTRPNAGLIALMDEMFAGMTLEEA

[5] = fluconazole-exposed Candida albicans growth modulators – fluorescence, retest, confirmation (AID 2467); type: functional, cell-based
[6] = NIH-3T3 fibroblast cytotoxicity, dose response, cytotoxicity control, cell-based, fluorescence, Alamar Blue, secondary assay (AID 2327); type: functional;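 note: NIH-3T3 mouse fibroblasts cultured with fluconazole at 8 µg/mL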

ATP-dependent molecular chaperone HSP82, sequence (C4YTQ8 whole entry): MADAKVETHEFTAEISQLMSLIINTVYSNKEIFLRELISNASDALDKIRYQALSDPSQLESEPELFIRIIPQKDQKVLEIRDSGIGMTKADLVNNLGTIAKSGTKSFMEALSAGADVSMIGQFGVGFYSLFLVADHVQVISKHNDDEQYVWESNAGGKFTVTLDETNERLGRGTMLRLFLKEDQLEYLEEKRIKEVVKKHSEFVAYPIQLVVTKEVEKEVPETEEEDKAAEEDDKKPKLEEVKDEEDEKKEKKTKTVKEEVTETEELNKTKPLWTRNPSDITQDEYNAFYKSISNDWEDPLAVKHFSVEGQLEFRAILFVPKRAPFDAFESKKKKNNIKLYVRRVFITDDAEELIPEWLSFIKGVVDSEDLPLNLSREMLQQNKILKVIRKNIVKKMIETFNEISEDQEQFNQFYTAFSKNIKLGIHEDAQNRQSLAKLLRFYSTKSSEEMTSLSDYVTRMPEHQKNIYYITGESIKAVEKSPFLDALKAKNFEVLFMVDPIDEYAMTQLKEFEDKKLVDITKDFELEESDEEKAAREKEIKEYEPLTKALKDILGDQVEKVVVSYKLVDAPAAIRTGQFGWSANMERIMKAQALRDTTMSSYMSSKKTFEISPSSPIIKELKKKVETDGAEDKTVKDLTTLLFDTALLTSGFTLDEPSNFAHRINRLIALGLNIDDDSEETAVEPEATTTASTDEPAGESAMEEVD

SMILES: COc1ccc(CC(=O)N(Cc2ccccc2)c2ccc(C)cc2)cc1S(=O)(=O)N1CCOCC1
- IC50 [1]: 43.7 µM (active)

SMILES: CC(=O)NC1CCCN(O)C(=O)/C=C(\C)CCOC(=O)C(NC(C)=O)CCCN(O)C(=O)/C=C(\C)CCOC(=O)C(NC(C)=O)CCCN(O)C(=O)/C=C(\C)CCOC1=O (configuration not stated)
- IC50 [2]: > 119 µM (inactive)
- EC50 [3]: > 160 µM (inactive)
- EC50 [4]: > 180 µM (inactive)
- IC50 (Exodeoxyribonuclease V): > 119 µM (inactive)
- EC50 [5]: 0.742 µM (active)
- EC50 [6]: > 160 µM (inactive)
